“And” between values parts separate entries of the source, which are not always exact repeats. Equal entries are not always repeated.
How the values were obtained:
Assay type in all cases: in vivo
[1] = system: New Zealand White rabbits; assay: Hypercholesterolemic rabbit model: liver histology scores (steatosis, inflammation, fibrosis); design: key to Score of Fibrosis: 0: none; 1: mild perisinusoidal or periportal; 2: perisinusoidal and portal/periportal; 3: bridging fibrosis; 4: cirrhosis; key to Score of Steatosis Location: 0: zone 3, centrilobular; 1: zone 2, mid-zonal; 3: panacinar; conditions: individual liver slides; 0.5% cholesterol chow plus 10 mg/kg Lovastatin, 1% ARH003, 1% ARH004 or 10 mg/kg AR101-DS2; 12-week study
[2] = system: TNF-α, IL-1β, IL-6 and TGF-β; assay: Bleomycin-induced pulmonary fibrosis in mice: pro-inflammatory cytokines by ELISA; conditions: extract 1.0 g/kg; BH, DH 50 mg/kg; after BLM challenge; p<0.001
Procedure: Mice were divided into fifth groups with 5 animals per group according to body weight: control group, BLM group, BLM+DEX group (7.5 mg/kg), BLM+ACH dosage group (50 mg/kg), and BLM+ACM dosage group (25 mg/kg), BLM+ACH dosage group (50 mg/kg), and BLM+ACM dosage group (25 mg/kg) BLM+AH dosage group (50 mg/kg), and BLM+AM dosage group (25 mg/kg) BLM+BH dosage group (50 mg/kg), and BLM+BM dosage group (25 mg/kg) BLM+CH dosage group (50 mg/kg), and BLM+CM dosage group (25 mg/kg) BLM+DH dosage group (50 mg/kg), and BLM+DM dosage group (25 mg/kg) BLM+EH dosage group (50 mg/kg), and BLM+EM dosage group (25 mg/kg) BLM. Pulmonary fibrosis (PF) was established in mice via a single intratracheal administration of BLM at 7.5 mg/kg mg/kg body weight. Different doses of samples were intragastrically administered daily for 21 days after BLM injury, and DEX was used as the positive control. Control and model groups received an equal volume of vehicle (0.9% NaCl) using the same schedule and route of administration. […]
The serum concentration of the pro-inflammatory cytokines (i.e. tumor necrosis factor-α (TNF-α), interleukin-6 (IL-6), and IL-1β) in serum were assessed with relevant enzyme-linked immunosorbent assay (ELISA) kits (Biosource International Inc., Sunnyvale, Calif., USA), based on the manufacturer's instructions.

ICR mice [3] = assay: Bleomycin-induced pulmonary fibrosis in mice: lung hydroxyproline content; conditions: extract 1.0 g/kg; AH, BH, DH 50 mg/kg; p<0.001
Procedure: (§1) Mice were divided into fifth groups with 5 animals per group according to body weight: control group, BLM group, BLM+DEX group (7.5 mg/kg), BLM+ACH dosage group (50 mg/kg), and BLM+ACM dosage group (25 mg/kg), BLM+ACH dosage group (50 mg/kg), and BLM+ACM dosage group (25 mg/kg) BLM+AH dosage group (50 mg/kg), and BLM+AM dosage group (25 mg/kg) BLM+BH dosage group (50 mg/kg), and BLM+BM dosage group (25 mg/kg) BLM+CH dosage group (50 mg/kg), and BLM+CM dosage group (25 mg/kg) BLM+DH dosage group (50 mg/kg), and BLM+DM dosage group (25 mg/kg) BLM+EH dosage group (50 mg/kg), and BLM+EM dosage group (25 mg/kg) BLM. Pulmonary fibrosis (PF) was established in mice via a single intratracheal administration of BLM at 7.5 mg/kg mg/kg body weight. Different doses of samples were intragastrically administered daily for 21 days after BLM injury, and DEX was used as the positive control. Control and model groups received an equal volume of vehicle (0.9% NaCl) using the same schedule and route of administration.
The contents of hydroxyproline were analyzed in lung tissue following the instruction of hydroxyproline assay kit (Biosource International Inc., Sunnyvale, Calif., USA). The pulmonary tissues of mice were ground and homogenized with 1 ml of 6 mol/L […] solution, hydrolyzed at 95° C. for 5 hours, and the pH value was adjusted to 6.0-6.8. According to the instructions, the corresponding reagents were added to the reaction system and mixed thoroughly and then incubated for 15 minutes at 60° C. After cooling, the supernatants were collected after centrifuging at 3500 rpm for 10 minutes. The absorbance value of the supernatant from the samples was measured at 550 nm by a spectrophotometer and calculated for the contents of hydroxyproline on each group.

ICR mice [4] = assay: Bleomycin-induced pulmonary fibrosis in mice: body weight, lung weight, lung index; conditions: for Pulmonary index: (lung weight/body weight)×100
Procedure: (§2) Specific pathogen-free ICR mice (males) (body weights 18-22 g) were purchased from the BioLASCO Taiwan Co., Ltd. (Taipei, Taiwan). The animals were housed in Plexiglas cages at a constant temperature of 22±1° C. and a relative humidity of 55±5% on a 12 h dark-light cycle for at least 2 weeks before the experiment. Animals were provided food and water ad libitum. All experimental procedures were performed according to the guidelines of the Institutional Animal Ethics Committee, and the protocol was approved by the Committee for the Purpose of Control and Supervision of Experiments on Animals.
as §1
Mouse body weights were recorded daily. Mice were sacrificed on the 21th day using excess chloral hydrate hydrochloride anesthesia. Blood was obtained for ELISA analyses, and whole lungs were removed and weighed. The right lungs were fixed in 10% formalin, dehydrated, and embedded in paraffin. The left lungs were used to determine hydroxyproline. The pulmonary coefficient was calculated using the following equation: lung weight/body weight×100%
1. Group I: control; 2. Group II: mice received single intraperitoneal injection of BLM (7.5 mg/kg BW) 3. Group III: single dose (ACH, 0.5 g/kg) 4. Group IV: Single dose (ACM, 1.0 g/kg) 5. […] Group VII: purified AR101-DS2 (50 mg/kg) 8. Group VIII: purified AR101-DS2 (25 mg/kg) 7. Group VII: purified AR101-DS4 (50 mg/kg) 8. Group VIII: purified AR101-DS4 (25 mg/kg) 7. […] Group VII: purified ARH013-RA1 (50 mg/kg) 8. Group VIII: purified ARH013-RA1 (25 mg/kg)

MPO = assay: Bleomycin-induced pulmonary fibrosis in mice: lung myeloperoxidase (MPO) assay; conditions: compared with BLM group, p<0.001
Procedure: as §1
The pulmonary MPO activity was a reliable index for estimating the infiltration of inflammatory cells in lungs. The lung tissues were homogenized and the MPO levels were detected with the kits according to manufacturer's instruction.

C57BL/6 mice = assay: Cisplatin-induced renal injury in mice: serum CRE and BUN; conditions: extracts at 1000 mg/kg; compared to cisplatin-stimulated group, p<0.001
Procedure: Determination of biochemical parameters Serum creatinine and serum urea are assessed using colorimetric kits according to manufacturer's instructions. Kits of the former markers are purchased from (HUMAN Diagnostics Worldwide, Magdeburg, Germany) with a chemical analyzer (Roche Diagnostics, Cobas Mira Plus, Rotkreuz, Switzerland).
as §2, with “Seven-to-eight-week-old male C57BL/6” for “Specific pathogen-free ICR”, “are obtained” for “(males) (body weights 18-22 g) were purchased”, “are” for “were”, “is” for “was”
Renal fibrosis is induced via multiple injections of low-dose cisplatin. Intraperitoneal injections of cisplatin (5 mg/kg/injection; P4394, Sigma-Aldrich, St Louis, Mo.) are performed at 0, 1, and 3 weeks, for a total of 3 injections. Mice are sacrificed at 6 weeks after the first dose of cisplatin (n=6). To analyze the effects of samples, mice are given daily intraperitoneal injections for 7 days, starting from 4 weeks after first dose of cisplatin, and sacrificed at […] (n=6).

[5] = 25 mg/kg intragastric daily for 21 days after BLM
[6] = 50 mg/kg intragastric daily for 21 days after BLM

Row | Molecule | Score of Fibrosis [1] | Score of Inflammation [1] | Score of Steatosis Grade [1] | Score of Steatosis Location [1] | TNF-α, IL-1β, IL-6 and TGF-β production [2] | hydroxyproline (HP) content in lung tissue (ICR mice [3]) | Final body mass (ICR mice [4]; [5]) [g] | Pulmonary mass (ICR mice [4]; [5]) [g] | Pulmonary index (ICR mice [4]; [5]) | Final body mass (ICR mice [4]; [6]) [g] | Pulmonary mass (ICR mice [4]; [6]) [g] | Pulmonary index (ICR mice [4]; [6]) | lung index, result in words (ICR mice [4]; high-dose groups (ACH 1.0 g/kg; BH, DH 50 mg/kg), vs bleomycin-administered animals) | lung MPO activity (MPO) | renal protection: normalization of serum CRE and BUN (C57BL/6 mice)
1 | CC[C@H](C)C(=O)O[C@H]1C[C@@H](C)C=C2C=C[C@H](C)[C@H](CC[C@@H]3C[C@@H](O)CC(=O)O3)[C@H]21 [L, Lovastatin, reference compound] | 0 (2×) and 1 | 1 (mild, 2 foci per 200 field) and 0 and 2 (moderate, 2-4 foci per 200 field) | 2 (33-66%) (2×) and 0 (low- to medium-power evaluation of parenchymal involvement <5%) | 1 (2×) and 0 | – | – | – | – | – | – | – | – | – | – | –
2 | Dehydrosulphurenic acid/Sulphurenic acid [AR101-DS2] | 0 | 1 (mild, 2 foci per 200 field) (2×) and 2 (moderate, 2-4 foci per 200 field) | 3 (>66%) (2×) and 1 (5-33%) | 2 and 1 and 0 | improved TNF-α, IL-1β, IL-6 and TGF-β production | reduced lung HP | 37.91 ± 0.30 | 0.48 ± 0.01 | 1.26 ± 0.03 | 39.7 ± 0.21 | 0.39 ± 0.01 | 1.01 ± 0.02 | significant decrease in the lung index | evidently suppressed the MPO activities | –
3 | C=C(CC[C@@H](C(=O)O)[C@H]1CC[C@@]2(C)C3=CC[C@H]4C(C)(C)[C@@H](O)CC[C@]4(C)C3=CC[C@]12C)C(C)C [AR101-DS4, Dehydroeburicoic Acid] | – | – | – | – | – | – | – | – | – | – | – | – | – | – | significant renal protection effect
4 | C=C(CC[C@@H](C)[C@H]1CC[C@H]2C3=C(C(=O)C[C@]12C)[C@@]1(C)CC[C@@H](O)[C@](C)(O)[C@@H]1C[C@@H]3O)[C@@H](C)C(=O)O (racemic) [AR101-DS1, RS-Antcin K] | – | – | – | – | – | reduced lung HP | – | – | – | – | – | – | – | evidently suppressed the MPO activities | –

— patent US20230201221A1, “USE OF TERPENOIDS IN THE TREATMENT OR PREVENTION OF FIBROTIC DISEASES” (ARJIL BIOTECH HOLDING COMPANY LIMITED, priority 2020, published 2023)
